{
  "source": "patent US8618068B2",
  "about": "“Methods and low dose regimens for treating red blood cell disorders” (priority 2009, dated 2013)",
  "key": {"γ-globin mRNA": {"tested_on": "γ-globin mRNA", "assay": "γ-globin mRNA in anemic baboons given HU and DMB", "assay_type": "in vivo", "conditions": "HU 3 days/week"}, "in vivo [1]": {"assay": "in vivo", "parameters": "species or system Sprague-Dawley rats", "conditions": "rat; for NOAEL at 14 days: Sprague-Dawley", "description": "[…] With respect to the FOB measurements, the effect of DMB appeared to be more pronounced in females than males. […] However, decreased motor activity, reduced rectal temperature, direct limbic effects such as a deficit in visual tactile placing accuracy, ataxia, dragging of the hindlimbs in the open field, and decreased grip strength and neuromotor-neuromuscular deficits were only documented in the female rats at 600 mg/kg. In the male rats, these effects were present only in the animals treated with 1,000 mg/kg."}, "in vivo [2]": {"assay": "in vivo", "parameters": "species or system Beagle dogs", "conditions": "dog", "from_the_text": "Completed toxicology studies conducted with DMB include a single-dose toxicity study in Sprague-Dawley rats, escalating dose toxicity study in Beagle dogs, a repeat dose study of 14-Day duration in Sprague-Dawley rats and repeat-dose toxicity studies of 28-Day duration in Sprague-Dawley rats and Beagle dogs, and 26-Week studies in Sprague-Dawley rats and Beagle dogs. […] Reproductive toxicity studies include two dose-range finding studies, one in Sprague-Dawley rats, the other in New Zealand white rabbits. DMB was administered once a day (QD) orally via gavage; doses are expressed as the sodium salt. In addition, an array of genotoxicity studies were conducted with DMB.\nBased on the results of this study, the NOEL for DMB in male and female Beagle dogs was 50 mg/kg/day; and the NOAEL for DMB in male and female Beagle dogs was at least 300 mg/kg/day, the highest dose administered over the 26-Week treatment period."}, "in vivo [3]": {"assay": "in vivo", "parameters": "species or system Beagle dogs", "conditions": "Beagle, dog; for AUC(0-inf): both sexes, po", "description": "DMB was administered orally by capsule to Beagle dogs for 26 weeks at dose levels of 0, 50, 150 and 300 mg/kg/day. Plasma levels were measured at 1 to 24 hours post-dose on Days 1 and 181. Peak plasma concentrations were measured at 1 to 4 hour postdose on Day 0, and at 1 to 8 hours postdose during Week 26. Systemic exposure increased with increasing dose level and was greater than dose-proportional on Day 0 and Week 26. […] The peak and extent of systemic exposure of Beagle dogs to DMB were similar in males and females. Systemic exposure values at Week 26 were 138 to 153% of the values at Day 0 for 50 mg/kg, 130% for 150 mg/kg, and 100 to 102% 300 mg/kg dose levels, indicating an accumulation of DMB during this time period for the 50 and 150 mg/kg dose levels and no accumulation at the 300 mg/kg dose level.\nToxicokinetic information from the 26-week rat (Table 7) and 26-week dog toxicity studies (Table 8) are compared to systemic exposure (AUC) levels determined in a clinical study."}, "[4]": {"assay": "Immunotoxicology weight-of-evidence analysis, repeat dose dog study", "assay_type": "in vivo, Beagle dog", "from_the_text": "The immunotoxicological potential of DMB has been evaluated by a weight-of-evidence analysis of the data generated in the repeat dose Sprague Dawley rat and Beagle dog studies. In both studies, there were no effects of treatment on WBC levels or lymph node histopathology, which are predictive of potential immunotoxicity."}, "fetal hemoglobin (HbF) [5]": {"tested_on": "fetal hemoglobin (HbF)", "assay": "Phase 2 trial in thalassemia intermedia patients, HbF and total hemoglobin", "assay_type": "in vivo, human", "description": "A randomized, doubled blind, placebo-controlled, multiple ascending dose Phase I/II trial was conducted in 21 adult patients with beta thalassemia intermedia, including 14 patients with HbE/β^0 thalassemia from Thailand and 7 patients with β^+/β^0 thalassemia (including 12 different beta globin gene mutations). Study medication was taken as a single daily dose of DMB for 8 weeks followed minimally by a 4 week break and follow-up period. Four ascending dose levels (10, 20, 30, and 40 mg/kg/day) were sequentially evaluated in 4 dose level cohorts after the preceding dose and schedule were determined safe by an independent and unblinded Safety Monitoring Committee.\nAll treatment groups had two placebo patients; placebo patients in the first dose group were randomized to treatment in the second dose group. Ten patients in Thailand (all HbE type) were treated with 10 mg/kg (8 active/2 placebo) followed by eight patients in Thailand who were treated followed by 30 mg/kg (6 active/2 placebo). Eleven patients (4 That, 7 Lebanese) were treated with 20 mg/kg followed by 40 mg/kg (9 active [6 Lebanese/3 That]/2 placebo). Patients ranged in age from 17 to 49 with a median age of 31 and were comprised for 16 females and 5 males.\nPatients were monitored every 2 weeks for laboratory studies, physical examinations, and adverse events. Further, patients were followed for hematologic parameters primarily focusing on hemoglobin and fetal hemoglobin (HbF). In addition, pharmacokinetic samples were obtained on Day 0 and 13, at pre-dose and 2, 4, 6, 8, 12, and 24 hours post-dosing. Hemoglobin was measured at each site using standard hematology equipment. HbF was measured using Varian HPLC. […] Adverse events in treated subjects included headache, upper respiratory infection, pyrexia, fatigue, nausea, and dizziness, but the rates of such events were not markedly different from those observed in the placebo-treated subjects."}, "[6]": {"assay": "Phase 2 trial in sickle cell disease patients, safety", "assay_type": "in vivo, human", "conditions": "10, 20, 30 mg/kg/day", "description": "(§1) A randomized, blinded dose-ranging Phase 1/2 clinical trial was performed in 24 US and Jamaican adult patients with sickle cell disease (including HbSS or S/β thalassemia). DMB was administered once daily for six week cycles of daily therapy with a 2 week treatment break between two cycles, then followed by a final 4 weeks without treatment. Three dose levels (10, 20, 30 mg/kg/day) were studied sequentially. Four out of 24 subjects were treated with placebo and 21 subjects were evaluable. Seven Patients (5 active/2 placebo) at 10 mg/kg, 6 patients (5 active/1 placebo) at 20 mg/kg, and 9 patients (7 active/1 placebo) at 30 mg/kg were randomized in the study. Patients ranged in age from 14 to 56 with a median age of 31 and were comprised of […]. Patients were followed for hematologic parameters focusing on fetal hemoglobin (HbF). HbF was measured by a Waters Empower 32 HPLC system with a Synchropak CM-300 column."}, "fetal hemoglobin (HbF) [7]": {"tested_on": "fetal hemoglobin (HbF)", "assay": "Phase 2 trial in sickle cell disease patients, HbF, total Hgb, fetal globin mRNA", "assay_type": "in vivo, human", "description": "as §1"}},
  "data": [
    {"smiles": "CCC(C)(C)C(=O)[O-].[Na+]", "note": "[DMB, Sodium 2,2-dimethylbutyrate]", "values": [
      {"measurement": "γ-globin mRNA increase above baseline", "setting": "γ-globin mRNA", "result": 290, "unit": "%"},
      {"measurement": "NOAEL at 14 days", "setting": "in vivo [1]; female", "result": 200, "unit": "mg/kg/day"},
      {"measurement": "NOAEL at 14 days", "setting": "in vivo [1]; male", "result": 600, "unit": "mg/kg/day"},
      {"measurement": "FOB effects after two-week drug free period", "setting": "in vivo [1]", "result": "no residual FOB effects"},
      {"measurement": "NOAEL at 26 weeks", "setting": "in vivo [2]; both sexes, Beagle", "result": "≥ 300", "unit": "mg/kg/day"},
      {"measurement": "NOEL", "setting": "in vivo [2]; both, Beagle, 26 weeks", "result": 50, "unit": "mg/kg/day"},
      {"measurement": "adverse effects", "setting": "in vivo [2]", "result": "no adverse effects"},
      {"measurement": "clinical observations", "setting": "in vivo [2]", "result": "no important treatment-related clinical observations"},
      {"measurement": "effects on ECG measurements", "setting": "in vivo [2]", "result": "No biologically significant effects"},
      {"measurement": "AUC(0-inf)", "setting": "in vivo [3]; 50 mg/kg", "result": 127, "unit": "µg·h/mL"},
      {"measurement": "AUC(0-inf)", "setting": "in vivo [3]; 150 mg/kg", "result": 473, "unit": "µg·h/mL"},
      {"measurement": "AUC(0-inf)", "setting": "in vivo [3]; 300 mg/kg", "result": 1470, "unit": "µg·h/mL"},
      {"measurement": "increase in exposure values for a 6-fold increase in dose (50 to 300 mg/kg/day)", "setting": "in vivo [3]; female", "result": 10.31, "unit": "fold"},
      {"measurement": "increase in exposure values for a 6-fold increase in dose (50 to 300 mg/kg/day)", "setting": "in vivo [3]; female, 26 weeks", "result": 7.58, "unit": "fold"},
      {"measurement": "increase in exposure values for a 6-fold increase in dose (50 to 300 mg/kg/day)", "setting": "in vivo [3]; male", "result": 12.85, "unit": "fold"},
      {"measurement": "increase in exposure values for a 6-fold increase in dose (50 to 300 mg/kg/day)", "setting": "in vivo [3]; male, 26 weeks", "result": 8.35, "unit": "fold"},
      {"measurement": "effects on WBC levels or lymph node histopathology", "setting": "[4]", "result": "no effects"},
      {"measurement": "patients in whom total hemoglobin increased", "setting": "fetal hemoglobin (HbF) [5]; 20 mg/kg group", "result": "2 out of 9"},
      {"measurement": "dose level with the largest increase in HbF", "setting": "fetal hemoglobin (HbF) [5]; Day 55", "result": 20, "unit": "mg/kg"},
      {"measurement": "change in HbF at Day 55", "setting": "fetal hemoglobin (HbF) [5]; all 4 DMB dose groups, compared to minimal change in placebo", "result": "median increases"},
      {"measurement": "Median change from baseline to Day 55 in total hemoglobin", "setting": "fetal hemoglobin (HbF) [5]; all groups including placebo", "result": "decreases"},
      {"measurement": "tolerability", "setting": "[6]", "result": "well tolerated"},
      {"measurement": "responding subjects in whom lactate dehydrogenase (LDH) declined", "setting": "fetal hemoglobin (HbF) [7]; 30 mg/kg doses", "result": "4 of 5"},
      {"measurement": "dose level with the largest increase in HbF", "setting": "fetal hemoglobin (HbF) [7]; Day 97", "result": 30, "unit": "mg/kg"},
      {"measurement": "dose level with the largest increase in total Hgb", "setting": "fetal hemoglobin (HbF) [7]; Day 97", "result": 30, "unit": "mg/kg"},
      {"measurement": "change in percent HbF at Day 97", "setting": "fetal hemoglobin (HbF) [7]; all 3 DMB dose groups, compared to a decrease in placebo", "result": "median increases"},
      {"measurement": "change in absolute HbF at Day 97", "setting": "fetal hemoglobin (HbF) [7]; all three DMB dose groups", "result": "Median increases"},
      {"measurement": "change in total Hgb at Day 97", "setting": "fetal hemoglobin (HbF) [7]; all three DMB dose groups, compared to a decrease in placebo", "result": "median increases"},
      {"measurement": "percentage of F-cells and percentage of fetal hemoglobin", "setting": "fetal hemoglobin (HbF) [7]; in some instances (FIG. 22, 10 mg/kg)", "result": "increased throughout the treatment period"}
    ]}
  ]
}
